Laboratory results as given in US20070202547A1, “Methods For Detecting Substances Which Bind To The Amyloid Precursor Protein Or Beta Amyloid Fragments, And Binding Compounds” (priority 2004, published 2007).

Assays:
APP variant = experiment: Antibody-masking ALPHA assay on biotinylated APP variant (Examples 5A/5B); assay type: binding; conditions: antibody to C-terminal region of Aβ (5A) and LN27 to N-terminal region of APP (5B); pH 4.5, 37° C., 1 hour
Protocol: A biotinylated APP variant (400 nM) was combined with Examples 1-3 under assay conditions (50 mM sodium acetate, pH 4.5; 1x Protease Inhibitor cocktail (Roche cat # 1836153); 100 μg/mL bovine serum albumin, 0.2% CHAPS). Incubations with vehicle, including DMSO (compound diluent), and incubations lacking the APP variant were carried out as controls for each experiment. Each mixture was incubated at 37° C. for 1 hour.
Thereafter, 70 μL of each incubation mixture was placed in its own well of a 96-well plate. 5 μL of 1 M Tris-Cl, pH 8.0 was added to each well to neutralize any binding reaction.
In Example 5A, a mixture of ALPHA beads was prepared from
(1) 20 μg/mL streptavidin donor beads;
(2) 20 μg/mL Protein A acceptor beads (from AlphaScreen General IgG (Protein A) Detection Kit Perkin Elmer Life Sciences; 10,000 pts (Part Number 6760617M)), containing 150 ng/mL of a rabbit polyclonal antibody directed against the C-terminal region of Aβ; and
(3) 0.1 % bovine serum albumin.
The beads were combined in a phosphate buffered saline.
In Example 5B, a mixture of ALPHA beads was prepared from […]
The following day, the plates were read using ALPHAQUEST, to measure the degree of binding of the antibodies. […]

gamma-secretase = gamma-secretase (Homo sapiens, UniProt P05067); experiment: Gamma-secretase cleavage of CTFβ substrate (HeLa cell membrane extract); assay type: biochemical; conditions: Aβ40 detection with 6E-10/G2-10, read-out: CTFβ CLEAVAGE AT POSITION 40
Chain of gamma-secretase (P05067 whole entry): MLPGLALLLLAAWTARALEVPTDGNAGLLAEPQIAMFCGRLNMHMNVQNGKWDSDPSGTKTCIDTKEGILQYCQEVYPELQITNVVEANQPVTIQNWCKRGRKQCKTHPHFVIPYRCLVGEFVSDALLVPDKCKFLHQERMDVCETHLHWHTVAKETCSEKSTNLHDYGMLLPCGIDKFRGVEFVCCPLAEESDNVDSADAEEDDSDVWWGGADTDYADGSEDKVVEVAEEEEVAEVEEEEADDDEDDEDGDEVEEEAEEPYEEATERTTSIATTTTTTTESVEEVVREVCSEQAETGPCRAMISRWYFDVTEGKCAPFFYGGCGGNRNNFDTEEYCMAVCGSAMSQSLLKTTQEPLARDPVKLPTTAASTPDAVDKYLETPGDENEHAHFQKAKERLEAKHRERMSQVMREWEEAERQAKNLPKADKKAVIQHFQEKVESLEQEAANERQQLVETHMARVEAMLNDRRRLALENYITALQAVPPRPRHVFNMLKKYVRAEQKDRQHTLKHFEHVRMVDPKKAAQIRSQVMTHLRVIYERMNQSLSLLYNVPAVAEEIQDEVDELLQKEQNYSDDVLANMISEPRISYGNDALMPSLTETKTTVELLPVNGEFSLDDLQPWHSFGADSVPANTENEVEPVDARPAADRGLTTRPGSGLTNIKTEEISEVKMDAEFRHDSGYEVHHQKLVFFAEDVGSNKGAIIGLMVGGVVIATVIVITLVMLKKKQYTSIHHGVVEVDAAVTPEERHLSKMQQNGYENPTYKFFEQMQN
Protocol: Accordingly, Examples 1-4 were tested for their ability to inhibit gamma-secretase cleavage of both a full-length CTFβ substrate, as described in Li, 2000, Proc. Natl Acad Sci. 97:6138-6143. The assays were carried out as follows:
Inhibition of CTFβ Cleavage
• 10 μL 10× protease inhibitor cocktail (Roche, cat # 1836153) • 25 μL 4× Buffer (50 mM PIPES pH7.0, 150 mM KCl, 5 mM MgCl2, 5 mM CaCl2) • 2 μL 10% CHAPSO • 5 μL HeLa cell membrane extract characterized for gamma-secretase activity • 7 μL 25 μM bacterially expressed CTFβ • 51 μL water • 1 μL compound in DMSO The reactions were incubated at 37° C. for 150 min and quenched with 25 μL 5× RIPA buffer (750mM NaCl, 5% NP-40, 2.5% DOC, 0.5% SDS, 250 mM Tris H8.0). Detection:
Gamma-secretase cleavage of the CTFβ substrate was assessed by incubating 50 μL of the reaction with 25 μL of 4 μg/mL biotinylated antibody 6E-10 which is specific for the N-terminal region of Aβ, and 25 μL of 1.5 μg/mL of a ruthinylated antibody G2-10, which is specific to the C-terminal region of Aβ40. The C-terminal region is present only after gamma secretase cleavage of Aβ. The antibodies were allowed to bind overnight at room temperature. The following day, 25 μL of 80 μg/mL streptavidin-coated Dynabeads (M-280) were added to each reaction, allowed to bind for 30 minutes, and quenched with 275 μL IGEN assay buffer. Quantification of the gamma-secretase cleavage products was carried out using an Origen Analyzer.

BACE2 = BACE2 cleavage of EV amyloid / Aβ (mass spectrometric analysis); assay type: biochemical; conditions: 100 μM; result in words
Protocol: The effect of inhibition of BACE 2 cleavage of EV amyloid was assayed using a protocol described in Shi et al, 2003, J. Biol. Chem., 278:21286-21294. The results of assaying Examples 1-4 at 100 μM are shown below: […]

BACE 1 = BACE 1 (Homo sapiens, UniProt P05067); experiment: Western blot of BACE 1 cleavage of APP variant; assay type: biochemical; conditions: bacterially expressed APP variant, BACE 1 protein, 1 h at 37° C.; read-out: IC50, inhibition of BACE cleavage of APP (densitometric quantitation of Western blot)
Chain of BACE 1 (P05067 whole entry K670N/M671F/D672E/A673V, form open): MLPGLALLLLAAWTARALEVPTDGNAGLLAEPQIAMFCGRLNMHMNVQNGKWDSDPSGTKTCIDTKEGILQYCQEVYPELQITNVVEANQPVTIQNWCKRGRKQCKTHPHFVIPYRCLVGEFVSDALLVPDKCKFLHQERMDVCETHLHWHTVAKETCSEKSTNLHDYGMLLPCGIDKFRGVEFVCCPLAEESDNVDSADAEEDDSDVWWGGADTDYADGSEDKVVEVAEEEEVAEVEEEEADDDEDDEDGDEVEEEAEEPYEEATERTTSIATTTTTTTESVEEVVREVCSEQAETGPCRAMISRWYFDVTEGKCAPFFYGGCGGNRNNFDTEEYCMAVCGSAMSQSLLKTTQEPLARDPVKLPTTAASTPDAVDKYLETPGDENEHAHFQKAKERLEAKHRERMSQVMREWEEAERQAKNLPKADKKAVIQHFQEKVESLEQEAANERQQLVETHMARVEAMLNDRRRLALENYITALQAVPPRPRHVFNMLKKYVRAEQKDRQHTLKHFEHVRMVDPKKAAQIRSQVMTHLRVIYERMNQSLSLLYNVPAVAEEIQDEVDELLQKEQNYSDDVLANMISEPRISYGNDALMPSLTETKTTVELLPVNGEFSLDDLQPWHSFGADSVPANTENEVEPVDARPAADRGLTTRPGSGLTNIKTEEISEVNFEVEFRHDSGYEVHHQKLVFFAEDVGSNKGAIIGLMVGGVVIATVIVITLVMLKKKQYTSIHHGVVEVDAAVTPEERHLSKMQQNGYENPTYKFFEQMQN
Protocol: A bacterially expressed APP variant containing an enhanced BACE cleavage sequence was incubated with Example 2 and BACE 1 protein for 1 h at 37° C. to conduct a Western blot analysis. The reaction was run on a gel and blotted. The BACE-specific cleavage product was detected using an antibody specifically recognizing the N-terminal product arising after BACE cleavage.
FIG. 2(A) depicts the Western blot.

[1] = test system: H4 neuroglioma cells expressing CTF99; experiment: Secreted Aβ42 and Aβ40 in H4 neuroglioma cells expressing CTF99 (ECL); assay type: cell-based; conditions: 20 h treatment, conditioned media, FIG. 4
Protocol: The compound of Example 1 was titrated into H4 neuroglioma cells expressing CTF99. The cells were treated with the compound of Example 1 for 20 h and conditioned media was harvested.

APP = APP (Homo sapiens, UniProt P05067); experiment: Biacore S51 binding to immobilized biotinylated APP; conditions: Biacore S51, SA-coated sensor chip
Chain of APP (P05067 18-770): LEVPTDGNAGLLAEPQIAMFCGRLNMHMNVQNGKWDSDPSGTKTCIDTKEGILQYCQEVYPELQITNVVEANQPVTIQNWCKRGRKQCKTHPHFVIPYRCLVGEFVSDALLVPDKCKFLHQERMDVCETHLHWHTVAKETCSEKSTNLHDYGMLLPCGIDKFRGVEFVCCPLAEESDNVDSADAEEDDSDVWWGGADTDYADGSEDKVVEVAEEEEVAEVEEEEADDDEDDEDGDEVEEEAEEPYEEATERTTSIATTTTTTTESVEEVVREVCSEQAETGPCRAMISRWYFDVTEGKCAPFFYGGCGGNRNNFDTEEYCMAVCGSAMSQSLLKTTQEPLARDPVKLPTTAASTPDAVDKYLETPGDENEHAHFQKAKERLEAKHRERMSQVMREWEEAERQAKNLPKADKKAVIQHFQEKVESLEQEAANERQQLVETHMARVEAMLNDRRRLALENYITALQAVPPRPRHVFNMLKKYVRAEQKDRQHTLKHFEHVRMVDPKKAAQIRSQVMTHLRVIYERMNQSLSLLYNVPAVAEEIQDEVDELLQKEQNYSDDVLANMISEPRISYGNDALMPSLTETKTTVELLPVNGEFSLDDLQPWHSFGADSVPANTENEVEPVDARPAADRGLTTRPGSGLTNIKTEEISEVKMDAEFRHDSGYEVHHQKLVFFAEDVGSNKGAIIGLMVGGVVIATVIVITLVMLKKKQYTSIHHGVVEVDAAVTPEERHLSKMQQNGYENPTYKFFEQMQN
Protocol: (§1) The compounds of formula (I) are believed to inhibit APP cleavage function by binding APP. The binding of the compound of Example 1 to APP was assayed by BiacoreS51. Biotinylated APP and biotinylated sAPPβ were immobilized to a SA-coated sensor chip. A titration of Example 1 was injected and the binding response for each concentration of Example 1 was obtained for both proteins. FIG. 5 is a graph of response units for […] (◯) or the BACE 1 inhibitor Statine-Val ( ? ) binding to APP.

sAPPβ = target: T1, sAPPβ (Homo sapiens, UniProt P05067); experiment: Biacore S51 binding to immobilized biotinylated sAPPβ; conditions: Biacore S51, SA-coated sensor chip
T1 construct: Biotinylated APP and biotinylated sAPPβ were immobilized to a SA-coated sensor chip
T1 sequence (P05067 18-671 limits assumed): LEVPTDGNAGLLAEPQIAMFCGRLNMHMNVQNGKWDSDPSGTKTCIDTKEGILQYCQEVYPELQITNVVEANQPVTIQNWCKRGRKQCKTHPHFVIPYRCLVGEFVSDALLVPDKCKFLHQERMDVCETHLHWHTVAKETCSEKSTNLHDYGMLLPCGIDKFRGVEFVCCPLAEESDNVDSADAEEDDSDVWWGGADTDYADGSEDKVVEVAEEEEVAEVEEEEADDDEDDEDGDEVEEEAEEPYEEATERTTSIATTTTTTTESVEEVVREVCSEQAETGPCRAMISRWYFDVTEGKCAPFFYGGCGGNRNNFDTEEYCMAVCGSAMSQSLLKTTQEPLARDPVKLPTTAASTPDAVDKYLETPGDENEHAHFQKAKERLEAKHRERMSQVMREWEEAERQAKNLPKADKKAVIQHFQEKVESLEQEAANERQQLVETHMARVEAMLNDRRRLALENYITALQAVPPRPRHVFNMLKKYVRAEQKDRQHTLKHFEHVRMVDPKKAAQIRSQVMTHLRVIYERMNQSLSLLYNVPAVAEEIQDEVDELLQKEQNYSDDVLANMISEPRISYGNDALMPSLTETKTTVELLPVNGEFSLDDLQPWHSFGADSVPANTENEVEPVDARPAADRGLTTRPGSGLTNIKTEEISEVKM
Protocol: as §1

| SMILES | interaction with the APP variant near the antibody binding sites (APP variant) | IC50 (gamma-secretase) [µM] | effect on BACE2 cleavage at positions 19 and 20 (BACE2) | IC50 (BACE 1) [µM] | production of Aβ42 relative to Aβ40 [1] | binding to APP (APP) | binding to sAPPβ (sAPPβ) |
| --- | --- | --- | --- | --- | --- | --- | --- |
| O=C(O)COc1cc2c(cc1CCCOc1ccccc1Cl)OC(CCc1ccccc1)C2 (stereo not drawn) [Example 2, {[6-[3-(2chlorophenoxy)propyl)-2-(2-phenylethyl)-2,3-dihydro-1-benzofuran-5-yl]oxy} acetic] | interacted with the APP variant within its Aβ domain, proximal to the C-terminal binding site | 8 | substantially enhanced cleavage at positions 19 and 20 | 11 | – | – | – |
| O=C(O)COc1cc2c(cc1CCCOc1ccccc1)OC(CCc1ccccc1)C2 (stereo not drawn) [Example 1, {[6-(3-phenoxypropyl)-2-(2-phenylethyl)-2,3-dihydro-1-benzofuran-5-yl]oxy} acetic acid] | interacted with the APP variant within its Aβ domain, proximal to the C-terminal binding site | 29 | – | – | decrease the production of Aβ42 relative to the production of Aβ40 | binds APP | does not bind sAPPβ |
